“Also recorded” adds a separate entry of the source.

We go through one substance from patent publication US20170326356A1, “METHODS FOR TREATING PSYCHIATRIC DISORDERS” (priority 2016, published 2017).

The test system of assay [1] is offspring of pregnant dams. Put plainly: Analysis of cortical patches (absence of SATB2 or TBR1 expression) in offspring after maternal immune activation. The class given is in vivo, mice. How it is done: (§1) Mice were mated overnight and females were checked daily for the presence of seminal plugs, noted as embryonic day 0.5 (E0.5). On E12.5, pregnant female mice were weighed and injected with a single dose (20 mg/kg i.p.) of poly(I:C) (Sigma Aldrich, USA) or PBS vehicle. Each dam was returned to its cage and left undisturbed until the birth of its litter. All pups remained with the mother until weaning on postnatal day 21 (P21), at which time mice were group housed at a maximum of 5 per cage with same-sex littermates. For checking the effect of poly(I:C) administration at different time points during pregnancy, the present inventors injected poly(I:C) into pregnant dams on E12.5, E15.5, or E18.5.
For cryosectioning, animals were intracardially perfused, and the brain was dissected out, fixed with 4% paraformaldehyde in PBS overnight at 4° C., and cryoprotected in 30% sucrose solution. The left hemisphere was marked with a needle and the sections were coronally sliced at 40 μm using a cryostat (Leica, USA). For vibratome sectioning, animals were intracardially perfused, and the brain was fixed with 4% paraformaldehyde in PBS overnight at 4° C. The brains were coronally sliced at 50 μm with a Leica VT1000S vibratome (Leica, USA).
Slices were permeabilized with blocking solution containing 0.4% Triton X-100 and 2% goat serum in PBS for 1 h at room temperature (RT) and then incubated with anti-rabbit-TBR1 (ab31940, Abcam, USA), anti-mouse-SATB2 (ab51502, Abcam, USA), anti-rabbit-PV (PV27, Swant, Switzerland), anti-rabbit-VIP (20077, Immunostar, USA), anti-mouse-NeuN (MAB377X, Millipore, USA), or anti-rabbit-c-Fos (sc-7270, Santa Cruz, USA) antibodies overnight at 4° C. […]
Cortical patches were identified by the absence of SATB2 or TBR1 expression. Spatial locations of the cortical patches were determined based on their distance from the midline of the brain and the layer structures of the cortex. […] The size of the cortical patches was calculated using Zen software (Carl Zeiss, Germany).

Assay [2] concerns offspring of pregnant dams. Nature of the assay: Ultrasonic vocalizations of pups. It is filed as in vivo, mice. The method, then: as §1
On postnatal day 9, mouse pup ultrasonic vocalizations (USVs) were detected for 3 min using an Ultra-Sound Gate CM16/CMPA microphone (AviSoft, Germany) and SAS Prolab software (AviSoft, Germany) in a sound attenuation chamber under stable temperature (19-22° C.) and light control (15 lux).

With “polyinosinic:polycytidylic acid [poly(I:C)]”, the “offspring with cortical patches in the S1” value is listed as 77% in assay [1] (dams injected at E12.5, 20 mg/kg i.p.); 13% in assay [1] (dams injected at E15.5); “none” in assay [1] (dams injected at E18.5). In addition, the “USV calls made by pups upon separation from mothers at P9” value in assay [2] (dams injected at E12.5, versus PBS offspring) was “emitted more ultrasonic vocalization (USV) calls”; in assay [2] (dams injected at E15.5 or E18.5) it was “This finding was not observed; also recorded: such an increase was not observed”.
